Our source for the IC50 values is US7728146B2, “Enzyme inhibitors” (Probiodrug AG, priority 2006, dated 2010).

For one assay, the target named is DP IV (Homo sapiens, UniProt P27487). The experiment in a line: DP IV inhibition IC50, parallel-synthesis compounds tested directly following synthesis (without purification). The class given is biochemical. On the set-up: IC50 DP4; other: tested directly following parallel synthesis, without purification; compounds of formula (Ib) from parallel synthesis, tested directly following synthesis. Particulars: DP IV inhibition; compounds of formula (Ib) from parallel synthesis, tested directly following synthesis (without purification); read-out: IC50. The method, boiled down: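 IC50 came from a 4-parameter fit of residual activity (linear 405 nm slopes for pNA release over ~18 min, relative to solvent-only wells). Gly-Pro-pNA was the substrate, cleaved by porcine kidney or recombinant human DP IV at room temperature in HEPES with 5% DMSO; duplicate 1:2 series started at 100 μM final.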
In general, IC50 refers to the point on the concentration scale where inhibition reaches its midpoint. In the case of `NCc1c(-c2ccc(Cl)cc2Cl)ncn1CCc1ccccc1F` [83b, C-{5-(2,4-Dichloro-phenyl)-3-[2-(2-fluoro-phenyl)-ethyl]-3H-imidazol-4-yl}-methylamine], the half-maximal inhibitory concentration (IC50) amounted to 5.5 µM. Same read-out and setting: in the case of `NCCCc1c(-c2ccc(Cl)cc2Cl)ncn1CCNc1ccc([N+](=O)[O-])cn1` [74b, {2-[5-(3-Amino-propyl)-4-(2,4-dichloro-phenyl)-imidazol-1-yl]-ethyl}-(5-nitro-pyridin-2-yl)-amine] it was 12.7 µM; in that of `CC(N)c1c(-c2ccc(Cl)cc2Cl)ncn1Cc1ccccc1` (centres unmarked) [109b, 1-[3-Benzyl-5-(2,4-dichloro-phenyl)-3H-imidazol-4-yl]-ethylamine], 7.3 µM.

In the case of `NCc1c(-c2ccc(Cl)cc2Cl)ncn1CCC1=CCCCC1` [65b, C-[3-(2-Cyclohex-1-enyl-ethyl)-5-(2,4-dichloro-phenyl)-3H-imidazol-4-yl]-methylamine], the IC50 worked out at 2.8 µM. On the same count and under the same terms, in the case of `NCc1c(-c2ccc(Cl)cc2Cl)ncn1Cc1c(F)cccc1F` [40b, C-[5-(2,4-Dichloro-phenyl)-3-(2,6-difluoro-benzyl)-3H-imidazol-4-yl]-methylamine] it was 10.9 µM; in that of `NCc1c(-c2ccc(Cl)cc2Cl)ncn1CCCO` [47b, 3-[5-Aminomethyl-4-(2,4-dichloro-phenyl)-imidazol-1-yl]-propan-1-ol], 10.9 µM; in that of `NCc1c(-c2ccc(Cl)cc2Cl)ncn1CCNc1ccc([N+](=O)[O-])cn1` [20b, {2-[5-Aminomethyl-4-(2,4-dichloro-phenyl)-imidazol-1-yl]-ethyl}-(5-nitro-pyridin-2-yl)-amine], 8.2 µM. As to `NCc1c(-c2ccc(Cl)cc2Cl)ncn1CCCCc1ccccc1` [42b, C-[5-(2,4-Dichloro-phenyl)-3-(4-phenyl-butyl)-3H-imidazol-4-yl]-methylamine], the IC50 was 7.3 µM. For the compound `COCCn1cnc(-c2ccc(Cl)cc2Cl)c1CN` [60b, C-[5-(2,4-Dichloro-phenyl)-3-(2-methoxy-ethyl)-3H-imidazol-4-yl]-methylamine], the IC50 amounted to 20.8 µM.

Consider `CCCCCn1cnc(-c2ccc(Cl)cc2Cl)c1C(C)N` (centres unmarked) [115b, 1-[5-(2,4-Dichloro-phenyl)-3-pentyl-3H-imidazol-4-yl]-ethylamine], for which the IC50 was 29.8 µM.

Regarding `CC(N)c1c(-c2ccc(Cl)cc2Cl)ncn1CCc1cccc(Cl)c1` (centres unmarked) [64b, 1-[3-[2-(3-Chloro-phenyl)-ethyl]-5-(2,4-dichloro-phenyl)-3H-imidazol-4-yl]-ethylamine], the 50% inhibitory concentration (IC50) is 28.9 µM. In the case of `NCc1c(-c2ccc(Cl)cc2Cl)ncn1CCO` [56b, 2-[5-Aminomethyl-4-(2,4-dichloro-phenyl)-imidazol-1-yl]-ethanol], the IC50 is 19.9 µM.

As to `NCc1c(-c2ccc(Cl)cc2Cl)ncn1CCCNC1CCCCC1` [19b, {3-[5-Aminomethyl-4-(2,4-dichloro-phenyl)-imidazol-1-yl]-propyl}-cyclohexyl-amine], the IC50 stood at 45.1 µM. On the same count and under the same terms, in the case of `COc1ccc(Cn2cnc(-c3ccc(Cl)cc3Cl)c2C(C)N)cc1OC` (centres unmarked) [95b, 1-[5-(2,4-Dichloro-phenyl)-3-(3,4-dimethoxy-benzyl)-3H-imidazol-4-yl]-ethylamine] it was 19.9 µM. The same measure, in the same setting: in the case of `CCCn1cnc(-c2ccc(Cl)cc2Cl)c1CN` [86b, C-[5-(2,4-Dichloro-phenyl)-3-propyl-3H-imidazol-4-yl]-methylamine] it was 17.2 µM; in that of `COc1ccccc1Cn1cnc(-c2ccc(Cl)cc2Cl)c1C(C)N` (centres unmarked) [80b, 1-[5-(2,4-Dichloro-phenyl)-3-(2-methoxy-benzyl)-3H-imidazol-4-yl]-ethylamine], 2.8 µM; in that of `NCc1c(-c2ccc(Cl)cc2Cl)ncn1CCCN1CCCC1=O` [29b, 1-{3-[5-Aminomethyl-4-(2,4-dichloro-phenyl)-imidazol-1-yl]-propyl}-pyrrolidin-2-one], 22.6 µM. As to `NCc1c(-c2ccc(Cl)cc2Cl)ncn1CCC(c1ccccc1)c1ccccc1` [53b, C-[5-(2,4-Dichloro-phenyl)-3-(3,3-diphenyl-propyl)-3H-imidazol-4-yl]-methylamine], the IC50 is 18.1 µM. Same read-out and setting: in the case of `NCc1c(-c2ccc(Cl)cc2Cl)ncn1Cc1c(F)cccc1Cl` [123b, C-[3-(2-Chloro-6-fluoro-benzyl)-5-(2,4-dichloro-phenyl)-3H-imidazol-4-yl]-methylamine] it was 1.9 µM. The same measure, in the same setting: in the case of `NCc1c(-c2ccc(Cl)cc2Cl)ncn1Cc1cc(Br)ccc1F` [124b, C-[3-(5-Bromo-2-fluoro-benzyl)-5-(2,4-dichloro-phenyl)-3H-imidazol-4-yl]-methylamine] it was 34.3 µM; in that of `COc1ccc(CCn2cnc(-c3ccc(Cl)cc3Cl)c2CN)cc1` [45b, C-{5-(2,4-Dichloro-phenyl)-3-[2-(4-methoxy-phenyl)-ethyl]-3H-imidazol-4-yl}-methylamine], 27.1 µM; in that of `NCCc1c(-c2ccc(Cl)cc2Cl)ncn1CCNc1ccc([N+](=O)[O-])cn1` [79b, {2-[5-(2-Amino-ethyl)-4-(2,4-dichloro-phenyl)-imidazol-1-yl]-ethyl}-(5-nitro-pyridin-2-yl)-amine], 16.3 µM. On the same count and under the same terms, in the case of `COc1ccc(Cn2cnc(-c3ccc(Cl)cc3Cl)c2CN)cc1OC` [5b, C-[5-(2,4-Dichloro-phenyl)-3-(3,4-dimethoxy-benzyl)-3H-imidazol-4-yl]-methylamine] it was 19.9 µM; in that of `CCn1cnc(-c2ccc(Cl)cc2Cl)c1CN` [122b, C-[5-(2,4-Dichloro-phenyl)-3-ethyl-3H-imidazol-4-yl]-methylamine], 46 µM.

The same assay, now with this note: tested directly following parallel synthesis, without purification; read-out: IC50 DP4.
Take `NCc1c(-c2ccc(F)cc2Cl)ncn1Cc1ccc(F)cc1` [Example 5a, C-[5-(2-Chloro-4-fluoro-phenyl)-3-(4-fluoro-benzyl)-3H-imid-azol-4-yl]-methyl-amine]: the IC50 came out at 10.9 µM. The same measure, in the same setting: in the case of `NCc1c(-c2ccc(Cl)cc2Cl)ncn1Cc1ccc(F)cc1` [Example 36a, C-[5-(2,4-Dichloro-phenyl)-3-(4-fluoro-benzyl)-3H-imid-azol-4-yl]-methyl-amine] it was 0.1 µM. The same measure, in the same setting: in the case of `Cn1cccc1Cn1cnc(-c2ccc(Cl)cc2Cl)c1CN` [Example 64a, C-[5-(2,4-Dichloro-phenyl)-3-(1-methyl-1H-pyrrol-2-yl-methyl)-3H-imid-azol-4-yl]-methyl-amine] it was 27.1 µM; in that of `NCc1c(-c2ccc(Cl)cc2Cl)ncn1Cc1ccccc1` [Example 47a, C-[3-Ben-zyl-5-(2,4-dichloro-phenyl)-3H-imid-azol-4-yl]-methyl-amine], 0.1 µM. Same read-out and setting: in the case of `NCc1c(-c2ccc(Cl)cc2Cl)ncn1Cc1ccc(F)c(F)c1` [Example 49a, C-[5-(2,4-Dichloro-phenyl)-3-(3,4-difluoro-benzyl)-3H-imid-azol-4-yl]-methyl-amine] it was 0.1 µM; in that of `NCc1c(-c2ccc(F)cc2Cl)ncn1Cc1cccs1` [Example 1a, C-[5-(2-Chloro-4-fluoro-phenyl)-3-thio-phen-2-yl-methyl-3H-imid-azol-4-yl]-methyl-amine], 11.8 µM. `NCc1c(-c2ccc(F)cc2Cl)ncn1Cc1ccsc1` [Example 11a, C-[5-(2-Chloro-4-fluoro-phenyl)-3-thiophen-3-ylmethyl-3H-imidazol-4-yl]-methylamine]: the IC50 was found to be 4.6 µM. The same measure, in the same setting: in the case of `NCc1c(-c2ccc(Cl)cc2Cl)ncn1Cc1cc(Br)ccc1F` [Example 44a, C-[3-(5-Bromo-2-fluoro-benzyl)-5-(2,4-dichloro-phenyl)-3H-imid-azol-4-yl]-methyl-amine] it was 30.7 µM.

Turning to `NCc1c(-c2ccc(F)cc2Cl)ncn1Cc1c(F)cccc1Cl` [Example 13a, C-[3-(2-Chloro-6-fluoro-benzyl)-5-(2-chloro-4-fluoro-phenyl)-3H-imid-azol-4-yl]-methyl-amine], the half-inhibitory concentration (IC50) was found to be 36.1 µM. For the compound `CC(C)(C)Cn1cnc(-c2ccc(F)cc2Cl)c1CN` [Example 21a, C-[5-(2-Chloro-4-fluoro-phenyl)-3-(2,2-di-methyl-propyl)-3H-imid-azol-4-yl]-methyl-amine], the concentration for half-maximal inhibition (IC50) came out at 35.2 µM. As to `NCc1c(-c2ccc(Cl)cc2Cl)ncn1Cc1ccc(F)cc1Cl` [Example 63a, C-[3-(2-Chloro-4-fluoro-benzyl)-5-(2,4-di-chloro-phenyl)-3H-imid-azol-4-yl]-methyl-amine], the IC50 amounted to 1.9 µM. Still for that read-out and setting: in the case of `NCc1c(-c2ccc(Cl)cc2Cl)ncn1Cc1ccccc1OC(F)(F)F` [Example 55a, C-[5-(2,4-Dichloro-phenyl)-3-(2-tri-fluorometh-oxy-benzyl)-3H-imid-azol-4-yl]-methyl-amine] it was 0.1 µM; in that of `NCc1c(-c2ccc(Cl)cc2Cl)ncn1Cc1ccccc1Cl` [Example 34a, C-[3-(2-Chloro-benzyl)-5-(2,4-di-chloro-phenyl)-3H-imid-azol-4-yl]-methyl-amine], 1 µM; in that of `NCc1c(-c2ccc(F)cc2Cl)ncn1Cc1ccccc1OC(F)(F)F` [Example 23a, C-[5-(2-Chloro-4-fluoro-phenyl)-3-(2-tri-fluoromethoxy-benzyl)-3H-imid-azl-4-yl]-methyl-amine], 5.5 µM. On the same count and under the same terms, in the case of `NCc1c(-c2ccc(F)cc2Cl)ncn1Cc1ccc(Cl)c(Cl)c1` [Example 25a, C-[5-(2-Chloro-4-fluoro-phenyl)-3-(3,4-di-chloro-benzyl)-3H-imid-azol-4-yl]-methyl-amine] it was 33.4 µM; in that of `NCc1c(-c2ccc(Cl)cc2Cl)ncn1Cc1ccccc1C(F)(F)F` [Example 51a, C-[5-(2,4-Dichloro-phenyl)-3-(2-tri-fluoromethyl-benzyl)-3H-imid-dazol-4-yl]-methyl-amine], 3.7 µM. On the same count and under the same terms, in the case of `NCc1c(-c2ccc(F)cc2Cl)ncn1Cc1c(Cl)cccc1Cl` [Example 26a, C-[5-(2-Chloro-4-fluoro-phenyl)-3-(2,6-di-chloro-benzyl)-3H-imid-azol-4-yl]-methyl-amine] it was 39.7 µM.
